Data taken from patent publication US5447915A, “Terminally blocked antiviral peptides” (priority 1992, dated 1995).
Non-standard residues stand in square brackets, D forms with d. Residues, ends and D or L forms follow the SMILES beside them. *: point of attachment. OBn = c1ccc(CO*)cc1

Key:
[1] = molecular target: T1, human immunodeficiency virus (HIV-1) glycoprotein gp120 (Human immunodeficiency virus type 1 group M subtype B, UniProt P03375); format: binding; settings: HSBCD4-M.23 cells; for inhibition of gp120 binding to CD4 (corrected mean fluorescence of CD4-expressing cells): gp120 preincubated with peptide 1 hour 37° C., about 50 μM to 900 μM
T1 construct: a solution of gp120 (20 μg/ml) (synthesized in vitro from baculovirus and obtained from MicroGeneSys); purchased MicroGeneSys, West Haven, Conn; host or cells: gp120 from baculovirus expression; CD4 on HSBCD4-M.23 cells (HSB-2 clone transfected with CD4 cDNA)
Method: The peptides prepared as described in Example 1 were characterized as to their ability to bind to the human immunodeficiency virus (HIV-1) glycoprotein gp120. This ability was assayed on the basis of the peptides ability to inhibit binding of gp120 to the human CD4 protein.
On the day of the assay the peptides were diluted 10-fold in phosphate buffered saline (PBS) and 2-fold serial dilutions made into PBS previously adjusted to the same DMSO concentration (10%). 25 μl each of each peptide solution and a solution of gp120 (20 μg/ml) (synthesized in vitro from baculovirus and obtained from MicroGeneSys, West Haven, Conn.) were combined and incubated at 37° C. for 1 hour. A total of 3-5×10^5 HSBCD4-M.23 cells [derived from a clone of the pre-T cell leukemia line HSB-2 (obtained from the American Type Culture Collection (ATCC), Rockville, Md.) which expresses human CD4 as a result of transfaction of CD4 cDNA sequences; Diamond et al., Proc. Natl. Acad. Sci. 87: xxxx (1990)] were pelleted in the walls of a 96-well V-bottom microtiter plate, resuspended with the preincubated gp 120-peptide mixture and allowed to incubate at 4° C. for 1 hour. The cells were then pelleted and resuspended in 50μl of a solution containing rabbit anti-gp120 antibody (diluted 1:400 in PBS; MicroGeneSys, West Haven, Conn.) and incubated at 4° C. for 30 min. The cells were again pelleted, washed with 100 μl PBS and resuspended in 50μl of a solution containing fluorescein isothiocyanate (FITC)-conjugated goat anti-rabbit antibody (diluted 1:20; Tago) and incubated at 4° C. for 30 min. The cells were pelleted and washed as before, and resuspended in 100 μl of a solution containing propidium iodine at a concentration of 25 μg/ml and transferred to tubes containing 400 μl PBS for flow cytometric analysis on an Epics V (Coulter) for FAtScan (Betton-Dickinson,Mountainview, Calif.). Cells were gated on propidium iodide to exclude dead cells. Green fluorescence was collected on the linear amplifier and the mean fluorescence calculated.

[2] = system: IL-2 production in 16CD4-9 T cell hybridoma cells; settings: peptide 200 μg/ml, gp120 5-10 μg/ml, diluted 20-fold and reconcentrated by ultrafiltration
Method: These gp120 solutions were then diluted 20-fold with PBS and the gp120 reconcentrated by ultrafiltration as described in Example 2. The recovered gp120 solutions were then combined with 1×10^5 16CD4-9 T cell hybridoma cells (available from ATCC) and 2×10^5 Daudi cells and cultured overnight at 37° C. IL-2 was detected in the culture supernatants using a cell proliferation assay [Watson, J. Exp. Med. 150: 1510-1515 (1979)], with the modification that proliferation was detected colorimetrically as the cleavage of 3-(4,5-dimethyl-thiazol)-2,6-diphenyl-tetrazolium bromide (MTT) [Finberg et al., Science 249: 287-291 (1990)].

[3] = system: conjugate formation between HBSCD4-M.23 cells and Daudi cells; settings: peptide 100 μg/ml, gp120 20 μg/ml
Method: Conjugate formation was assayed using HBSCD4-M.23 cells and cells from the human MHC-expressing cell line Daudi (available from ATCC). The HBSCD4-M.23 cells were labeled with 0.5 μg/ml sulfofluorescein diacetate (Molecular Probes, Eugene, Oreg.) and the Daudi cells were labeled with 40 ng/ml hydroethidine (Polysciences, Warrington, Pa.) and mixed at a 1:2 ratio (HBSCD4-M.23:Daudi) at a total concentration of 1×10^6 cells/mi. Cells were then incubated in 30 μl RPMI 1640 media at 37° C. for at least 90 minutes in the presence or absence of CPF(DD) or CPF(δF) (at concentrations of 100 μg/ml) and gp120 (20 μg/ml). At the end of the incubation, the cells were gently resuspended to preserve conjugates and scored by fluorescence microscopy. Positive conjugates were scored as at least two cells displaying one fluorescent color bound to at least one cell displaying the other fluorescent color. Samples were analyzed blinded as to their identity, and in duplicate, and at least three counts of 100 fluorescein-labeled cells were performed for each sample. The percentage of conjugates scored was calculated as the total number of conjugates scored divided by the total number of conjugates plus free CD4-expressing (fluorescein-labeled) cells.

HIV-1 = settings: peptide 80 μg/ml; after 4 days of co-cultivation for CPF(DD)
Method: PBL-derived human T cells, infected with HIV-1, were washed extensively with RPMI 1640 media and then 10^4 infected T cells were added to 5×10^5 uninfected H9 cells in the presence or absence of CPF(DD) or CPF(δF) at concentrations of 80 μg/ml. Cells were co-cultivated and maintained at H9 cell densities of 5×10^5 cells/ml and tested after 2, .varies.and 6 days of co-cultivation. The extent of infection of H9 cells was determined by p24 antigen ELISA assay, performed 48 hours after washing the T-cell-H-9 cell mixture free of virus.

HIV = test: Inhibition of HIV infection of CD4-expressing human peripheral blood lymphocytes, p24 antigen; format: cell-based; settings: peptide 160 μg/ml; human T cells from PBL
Method: These cells were obtained by depleting peripheral blood mononuclear cells isolated by passage through nylon wool [Finberg et al., Science 249: 287-291 (1990)]using antibodies specific for CD8 (OKTS, obtained from ATCC) and CD16 (B73.1, a gift of G. Trinchieri) followed by treatment with antibody-coated magnetic beads [Haregerwoin et al., Nature 340: 309 (1989)]. This treatment enriches the cell population for CD4-expressing human peripheral T cells. Virus was incubated for 1 hour at 37° C. with varying concentrations of CPF(DD), or with CPF(6F) at a concentration of 160 μg/ml. The treated virus preparation was then incubated with cells for 1 hour at 37° C. Cells were washed twice and maintained in RPMI 1640/10% FCS supplemented with interleukin 2 [10 units/ml, Collaborative Research]. Cells were maintained and assayed for p24 production as described above.

Molecule: O=C(N[C@H](Cc1ccccc1)C(=O)OCc1ccccc1)[C@H]1CCCN1 [(DD) prolylphenylalanylbenzylester] (H-[dP]-[dF]-OBn)
- inhibition of gp120 binding to CD4 (corrected mean fluorescence of CD4-expressing cells) [1]: unable to inhibit gp120 binding

Molecule: COC(=O)C(=O)N1CCC[C@@H]1C(=O)OCc1ccccc1 [CPF(δF), N-carbomethoxylcarbonyl-D-Pro-OBn]
- IL-2 production in presence of gp120 preincubated with peptide [2]: slight increase in the amount of IL-2
- conjugate formation in presence of gp120 preincubated with peptide [3]: does not restrict gp120-mediated inhibition of conjugate formation
- p24 antigen in supernatant after co-cultivation of infected T cells and uninfected H9 cells (HIV-1): no different from those detected in co-cultures of T cells and H9 cells incubated without peptides
- kinetics and maximum production of p24 (HIV): does not effect either the kinetics or the maximum production of p24
- inhibition of gp120 binding to CD4 (corrected mean fluorescence of CD4-expressing cells) [1]: does not inhibit gp120 binding to CD4-expressing human cells

Molecule: COC(=O)C(=O)N[C@H](Cc1ccccc1)C(=O)OCc1ccccc1 [CPF(δP), N-carbomethoxylcarbonyl-D-Phe-OBn]
- inhibition of gp120 binding to CD4 (corrected mean fluorescence of CD4-expressing cells) [1]: does not inhibit gp120 binding to CD4-expressing human cells

Molecule: N-carbomethoxylcarbonyl-D-Pro-D-Ala-OBn [CPF(F→A)]
- concentration giving 50% inhibition of gp120 binding, fold higher than for CPF(LL) ([1]; in comparison with CPF(LL)): 2-5 fold
